Source: ChEMBL document CHEMBL1141675, “QSAR modeling of the interaction of flavonoids with GABA(A) receptor” (Eur J Med Chem, 2008)

Assay: Binding affinity to GABAA receptor
Design: unit not given here
For `O=c1cc(-c2ccccc2O)oc2ccccc12`, the logKi was -0.678.
`O=c1cc(-c2ccccc2O)oc2cc(O)cc(O)c12` gave a logKi of -1.12.
Molecule `O=c1cc(-c2cccc(F)c2)oc2ccc(Cl)cc12` has a logKi of -0.932.
`O=c1cc(-c2ccc(F)cc2)oc2ccccc12` showed a logKi of 0.556.
Molecule `O=c1c(O)c(-c2ccc(O)cc2)oc2cc(O)cc(O)c12` has a logKi of 1.97.
Molecule `O=c1cc(-c2cccc([N+](=O)[O-])c2)oc2ccc(Br)cc12` has a logKi of -3.
Molecule `O=c1cc(-c2ccccc2)oc2cc(O)cc(O)c12` has a logKi of 0.477.
For `Cc1cccc(-c2cc(=O)c3cc(Br)ccc3o2)c1`, the logKi was -0.812.
For `O=c1cc(-c2ccccc2Cl)oc2cc(O)cc(O)c12`, the logKi was 0.903.
For `COc1c(O)cc(O)c2c(=O)cc(-c3ccccc3)oc12`, the logKi was 0.182.
`COc1ccccc1-c1cc(=O)c2ccccc2o1` gave a logKi of 1.51.
`O=c1cc(-c2ccccc2)oc2ccccc12` gave a logKi of 0.
`COc1cccc(-c2cc(=O)c3cc(Br)ccc3o2)c1` gave a logKi of -0.215.
With `O=c1cc(-c2ccccc2[N+](=O)[O-])oc2ccc(Br)cc12` the logKi was -0.68.
Work on `O=c1cc(-c2cccc(Br)c2)oc2ccc([N+](=O)[O-])cc12` yielded a logKi of -1.6.
In the case of `O=c1cc(-c2ccccc2)oc2ccc(Br)cc12`, the logKi is reported as -1.16.
Work on `O=c1cc(-c2ccccc2F)oc2ccc(Br)cc12` yielded a logKi of -0.424.
For `O=c1cc(-c2ccccc2F)oc2ccc(Cl)cc12`, the logKi was -0.38.
With `COc1c(O)cc2oc(-c3ccccc3O)cc(=O)c2c1O` the logKi was -1.42.
Molecule `O=c1cc(-c2ccccc2O)oc2ccc3ccccc3c12` has a logKi of -1.57.
In the case of `O=c1cc(-c2ccccc2)oc2c(Br)c(O)c(Br)c(O)c12`, the logKi is reported as -0.155.
`O=c1cc(-c2ccccc2O)oc2cc(O)ccc12` showed a logKi of -0.252.
`O=c1cc(-c2cccc([N+](=O)[O-])c2)oc2ccc([N+](=O)[O-])cc12` gave a logKi of -1.58.
With `O=c1cc(-c2ccccc2)oc2ccc(Cl)cc12` the logKi was -0.785.
`COc1c(O)cc2oc(-c3ccc(O)cc3)cc(=O)c2c1O` showed a logKi of 0.
Work on `O=c1cc(-c2ccc([N+](=O)[O-])cc2)oc2ccc(Br)cc12` yielded a logKi of -0.699.
`O=c1cc(-c2cccc(Cl)c2)oc2ccccc12` gave a logKi of -0.212.
For `O=c1cc(-c2cccc(Cl)c2)oc2ccc(Cl)cc12`, the logKi was -1.64.
Work on `O=c1cc(-c2cccc(F)c2)oc2ccccc12` yielded a logKi of 0.55.
With `COc1ccc2oc(-c3ccccc3N)cc(=O)c2c1` the logKi was 0.544.
Work on `O=c1cc(-c2ccc(Br)cc2)oc2ccc([N+](=O)[O-])cc12` yielded a logKi of -1.6.
`COc1cc2oc(-c3ccc(O)c(O)c3)cc(=O)c2c(O)c1OC` gave a logKi of 2.3.
For `COc1c(O)cc2oc(-c3ccccc3)cc(=O)c2c1O`, the logKi was -0.051.
`O=c1cc(-c2ccccc2F)oc2cc(O)cc(O)c12` showed a logKi of 0.903.
`COc1cc(O)c2c(=O)cc(-c3ccccc3)oc2c1` showed a logKi of 1.7.
For `COc1cc2oc(-c3ccc(O)cc3)cc(=O)c2c(O)c1OC`, the logKi was 1.36.
Work on `COc1ccc2oc(-c3cccc(Br)c3)cc(=O)c2c1` yielded a logKi of 0.
`COc1cccc(-c2cc(=O)c3cc(Cl)ccc3o2)c1` showed a logKi of -0.072.
In the case of `O=c1cc(-c2ccc(F)cc2)oc2ccc(F)cc12`, the logKi is reported as 0.398.
`O=c1cc(-c2cccc([N+](=O)[O-])c2)oc2ccc(Cl)cc12` showed a logKi of -2.1.
For `O=c1cc(-c2ccccc2O)oc2ccc(O)cc12`, the logKi was -1.47.
Molecule `COc1c(O)c(OC)c2oc(-c3ccccc3O)cc(=O)c2c1O` has a logKi of -2.21.
In the case of `Cc1ccc2oc(-c3cccc(Br)c3)cc(=O)c2c1`, the logKi is reported as -1.89.
Work on `COc1cccc(-c2cc(=O)c3cc(F)ccc3o2)c1` yielded a logKi of 0.398.
In the case of `Cc1ccc2oc(-c3ccccc3)cc(=O)c2c1`, the logKi is reported as -0.903.
With `O=c1cc(-c2ccccc2)oc2c(I)c(O)c(I)c(O)c12` the logKi was 0.
Molecule `COc1ccc2oc(-c3ccccc3)cc(=O)c2c1` has a logKi of -0.066.
With `O=c1cc(-c2ccccc2)oc2cc(O)c(O)c(O)c12` the logKi was 0.747.
Molecule `O=c1cc(-c2cccc([N+](=O)[O-])c2)oc2ccccc12` has a logKi of -0.545.
In the case of `O=c1cc(-c2cccc(Br)c2)oc2ccc(Cl)cc12`, the logKi is reported as -1.64.
Molecule `COc1c(O)c(OC)c2oc(-c3ccccc3)cc(=O)c2c1O` has a logKi of -0.699.
`O=c1cc(-c2ccc(F)cc2)oc2ccc(Cl)cc12` showed a logKi of -0.742.
In the case of `COc1cccc(O)c1-c1cc(=O)c2c(O)c(OC)c(OC)c(OC)c2o1`, the logKi is reported as -0.444.
`O=c1cc(-c2ccccc2)oc2ccc(O)cc12` gave a logKi of 0.422.
For `O=c1cc(-c2ccccc2)oc2ccc([N+](=O)[O-])cc12`, the logKi was -0.561.
Molecule `COc1ccc(-c2cc(=O)c3cc(Br)ccc3o2)cc1` has a logKi of 0.322.
Work on `O=c1cc(-c2cccc(O)c2)oc2ccc(F)cc12` yielded a logKi of 0.4.
For `O=c1cc(-c2cccc(Cl)c2)oc2ccc(F)cc12`, the logKi was -0.701.
Work on `Cc1cccc(-c2cc(=O)c3cc(C)ccc3o2)c1` yielded a logKi of -0.682.
Molecule `O=c1cc(-c2cccc([N+](=O)[O-])c2)oc2ccc(F)cc12` has a logKi of -0.745.
`O=c1cc(-c2ccc(F)cc2)oc2ccc(Br)cc12` showed a logKi of -0.939.
In the case of `COc1cccc(-c2cc(=O)c3ccccc3o2)c1`, the logKi is reported as 0.38.
In the case of `Cc1ccc2oc(-c3cccc([N+](=O)[O-])c3)cc(=O)c2c1`, the logKi is reported as -2.25.
In the case of `O=c1cc(-c2ccccc2)oc2ccc(F)cc12`, the logKi is reported as 0.653.
`O=c1cc(-c2cccc(Br)c2)oc2ccc(F)cc12` gave a logKi of -0.627.
In the case of `O=c1cc(-c2cccc(O)c2)oc2ccc(Cl)cc12`, the logKi is reported as -0.07.
In the case of `O=c1cc(-c2ccccc2)oc2cc(O)ccc12`, the logKi is reported as 0.623.
For `O=c1cc(-c2ccc(O)cc2)oc2cc(O)cc(O)c12`, the logKi was 0.602.
`O=c1cc(-c2cccc(Br)c2)oc2ccccc12` gave a logKi of -0.384.
For `Cc1cccc(-c2cc(=O)c3ccccc3o2)c1`, the logKi was 1.
Molecule `O=c1cc(-c2cccc(Br)c2)oc2ccc(Br)cc12` has a logKi of -1.72.
Work on `O=c1cc(-c2cccc(Br)c2)oc2ccc(O)cc12` yielded a logKi of 0.
With `O=c1cc(-c2cccc(F)c2)oc2ccc(Br)cc12` the logKi was -1.38.
For `O=c1cc(-c2cccc(O)c2)oc2ccc(Br)cc12`, the logKi was -0.22.
`O=c1cc(-c2cccc(Cl)c2)oc2ccc(Br)cc12` showed a logKi of -1.77.
`COc1ccccc1-c1cc(=O)c2cc(O)ccc2o1` showed a logKi of 0.976.
Molecule `COc1ccc(-c2cc(=O)c3cc(Cl)ccc3o2)cc1` has a logKi of 0.097.
Molecule `O=c1cc(-c2cccc(F)c2)oc2ccc(F)cc12` has a logKi of -0.036.
